Results published in ChEMBL document CHEMBL1201861, “Genomics of Drug Sensitity in Cancer screening data, Wellcome Trust Sanger Institute”.

Tests used:
Assay in all cases: cells
COR-L88 = assay type: functional, cell-based, Homo sapiens; conditions: Homo sapiens, COR-L88;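 note: growth inhibition of COR-L88 cells, read out with a cell viability assay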
Description: SANGER: Inhibition of human COR-L88 cell growth in a cell viability assay.

Calu-6 = assay type: functional, cell-based, Homo sapiens; conditions: Homo sapiens, Calu-6;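 note: growth of human Calu-6 cells, read out by a cell viability assay, IC50 marking inhibition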
Description: SANGER: Inhibition of human Calu-6 cell growth in a cell viability assay.

DJM-1 = assay type: functional, cell-based, Homo sapiens; conditions: Homo sapiens, DJM-1;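 note: growth inhibition of human DJM-1 cells, read out by a cell viability assay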
Description: SANGER: Inhibition of human DJM-1 cell growth in a cell viability assay.

ES1 = assay type: functional, cell-based, Homo sapiens; conditions: Homo sapiens, ES1;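 note: growth inhibition of ES1 cells, read out with a cell viability assay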
Description: SANGER: Inhibition of human ES1 cell growth in a cell viability assay.

EW-13 = assay type: functional, cell-based, Homo sapiens; conditions: Homo sapiens, EW-13; read-out: IC50;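 note: growth inhibition of EW-13 cells, read out with a cell viability assay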
Description: SANGER: Inhibition of human EW-13 cell growth in a cell viability assay.

EW-3 = assay type: functional, cell-based, Homo sapiens; conditions: Homo sapiens, EW-3;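 note: cell viability assay read-out, IC50 reflects inhibition of growth of the EW-3 cells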
Description: SANGER: Inhibition of human EW-3 cell growth in a cell viability assay.

GCIY = assay type: functional, cell-based, Homo sapiens; conditions: Homo sapiens, GCIY;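 note: growth inhibition of the human GCIY cell line, read out by a cell viability assay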
Description: SANGER: Inhibition of human GCIY cell growth in a cell viability assay.

GI-ME-N = assay type: functional, cell-based, Homo sapiens; conditions: Homo sapiens, GI-ME-N;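 note: growth inhibition of human GI-ME-N cells, read out with a cell viability assay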
Description: SANGER: Inhibition of human GI-ME-N cell growth in a cell viability assay.

HCC1187 = assay type: functional, cell-based, Homo sapiens; conditions: Homo sapiens, HCC1187;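 note: growth inhibition of HCC1187 cells, read out with a cell viability assay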
Description: SANGER: Inhibition of human HCC1187 cell growth in a cell viability assay.

HCE-4 = assay type: functional, cell-based; conditions: Homo sapiens;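 note: cell viability assay measuring inhibition of growth in the human HCE-4 cell line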
Description: SANGER: Inhibition of human HCE-4 cell growth in a cell viability assay.

HEL = assay type: functional, cell-based, Homo sapiens; conditions: Homo sapiens, HEL;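 note: growth inhibition of HEL cells, read out with a cell viability assay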
Description: SANGER: Inhibition of human HEL cell growth in a cell viability assay.

IA-LM = assay type: functional, cell-based; conditions: Homo sapiens;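 note: cell viability assay measuring growth inhibition of human IA-LM cells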
Description: SANGER: Inhibition of human IA-LM cell growth in a cell viability assay.

IST-SL1 = assay type: functional, cell-based, Homo sapiens; conditions: Homo sapiens, IST-SL1;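 note: growth inhibition of human IST-SL1 cells, read out with a cell viability assay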
Description: SANGER: Inhibition of human IST-SL1 cell growth in a cell viability assay.

K562 = assay type: functional, cell-based, Homo sapiens; conditions: Homo sapiens, K562
Description: SANGER: Inhibition of human K-562 cell growth in a cell viability assay.

KALS-1 = assay type: functional, cell-based, Homo sapiens; conditions: Homo sapiens, KALS-1; read-out: IC50;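 note: growth inhibition of KALS-1 cells, determined with a cell viability assay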
Description: SANGER: Inhibition of human KALS-1 cell growth in a cell viability assay.

LOX IMVI = assay type: functional, cell-based, Homo sapiens; conditions: Homo sapiens, LOX IMVI
Description: SANGER: Inhibition of human LOXIMVI cell growth in a cell viability assay.

MHH-NB-11 = assay type: functional, cell-based, Homo sapiens; conditions: Homo sapiens, MHH-NB-11;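 note: growth inhibition of human MHH-NB-11 cells, read out by a cell viability assay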
Description: SANGER: Inhibition of human MHH-NB-11 cell growth in a cell viability assay.

MN-60 = assay type: functional, cell-based, Homo sapiens; conditions: Homo sapiens, MN-60;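 note: growth inhibition of the MN-60 cell line, determined with a cell viability assay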
Description: SANGER: Inhibition of human MN-60 cell growth in a cell viability assay.

MOLT-4 = assay type: functional, cell-based, Homo sapiens; conditions: Homo sapiens, MOLT-4;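 note: growth inhibition of MOLT-4 cells, determined with a cell viability readout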
Description: SANGER: Inhibition of human MOLT-4 cell growth in a cell viability assay.

MPP-89 = assay type: functional, cell-based, Homo sapiens; conditions: Homo sapiens, MPP-89;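 note: growth inhibition of human MPP-89 cells, read out with a cell viability assay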
Description: SANGER: Inhibition of human MPP-89 cell growth in a cell viability assay.

MV4-11 = assay type: functional, cell-based, Homo sapiens, MV-4-11; conditions: Homo sapiens, MV4-11;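 note: cell viability readout measuring growth inhibition of human MV-4-11 cells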
Description: SANGER: Inhibition of human MV-4-11 cell growth in a cell viability assay.

NB10 = assay type: functional, cell-based, Homo sapiens; conditions: Homo sapiens, NB10;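 note: growth inhibition of NB10 cells, read out by a cell viability assay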
Description: SANGER: Inhibition of human NB10 cell growth in a cell viability assay.

NB5 = assay type: functional, cell-based, Homo sapiens; conditions: Homo sapiens, NB5;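 note: growth inhibition of NB5 cells, read out as cell viability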
Description: SANGER: Inhibition of human NB5 cell growth in a cell viability assay.

NCI-H1092 = assay type: functional, cell-based, Homo sapiens; conditions: Homo sapiens, NCI-H1092;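 note: cell growth inhibition measured with a cell viability assay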
Description: SANGER: Inhibition of human NCI-H1092 cell growth in a cell viability assay.

NCI-H1355 = assay type: functional, cell-based, Homo sapiens; conditions: Homo sapiens, NCI-H1355;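 note: growth inhibition of human NCI-H1355 cells, read out by a cell viability assay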
Description: SANGER: Inhibition of human NCI-H1355 cell growth in a cell viability assay.

NCI-H1395 = assay type: functional, cell-based, Homo sapiens; conditions: Homo sapiens, NCI-H1395;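 note: cell viability assay read-out quantifying reduced proliferation of human NCI-H1395 cells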
Description: SANGER: Inhibition of human NCI-H1395 cell growth in a cell viability assay.

NCI-H1648 = assay type: functional, cell-based, Homo sapiens; conditions: Homo sapiens, NCI-H1648;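 note: cell viability assay measuring inhibition of NCI-H1648 cell growth, from the Sanger screening data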
Description: SANGER: Inhibition of human NCI-H1648 cell growth in a cell viability assay.

NCI-H1770 = assay type: functional, cell-based, Homo sapiens; conditions: Homo sapiens, NCI-H1770;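 note: growth inhibition of NCI-H1770 cells determined with a viability readout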
Description: SANGER: Inhibition of human NCI-H1770 cell growth in a cell viability assay.

NCI-H2126 = assay type: functional, cell-based, Homo sapiens; conditions: Homo sapiens, NCI-H2126;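 note: growth inhibition of the cancer cell line, determined with a cell viability readout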
Description: SANGER: Inhibition of human NCI-H2126 cell growth in a cell viability assay.

NCI-H226 = assay type: functional, cell-based, Homo sapiens; conditions: Homo sapiens, NCI-H226;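 note: cell viability read-out used to gauge growth inhibition of the cells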
Description: SANGER: Inhibition of human NCI-H226 cell growth in a cell viability assay.

NCI-H446 = assay type: functional, cell-based, Homo sapiens; conditions: Homo sapiens, NCI-H446;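 note: growth inhibition of NCI-H446 cells determined by a cell viability assay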
Description: SANGER: Inhibition of human NCI-H446 cell growth in a cell viability assay.

NCI-H720 = assay type: functional, cell-based, Homo sapiens; conditions: Homo sapiens, NCI-H720;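 note: growth inhibition of human NCI-H720 cells determined by a cell viability assay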
Description: SANGER: Inhibition of human NCI-H720 cell growth in a cell viability assay.

OMC-1 = assay type: functional, cell-based, Homo sapiens; conditions: Homo sapiens, OMC-1;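 note: growth inhibition of the OMC-1 cell line, measured by a cell viability assay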
Description: SANGER: Inhibition of human OMC-1 cell growth in a cell viability assay.

P30-OHK = assay type: functional, cell-based, Homo sapiens; conditions: Homo sapiens, P30-OHK;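 note: growth inhibition of the P30-OHK cell line, read out with a cell viability assay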
Description: SANGER: Inhibition of human P30-OHK cell growth in a cell viability assay.

RXF 393 = assay type: functional, cell-based, Homo sapiens; conditions: Homo sapiens, RXF 393;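 note: growth inhibition of human RXF 393 cells, read out with a cell viability assay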
Description: SANGER: Inhibition of human RXF393 cell growth in a cell viability assay.

SK-LMS-1 = assay type: functional, cell-based, Homo sapiens; conditions: Homo sapiens, SK-LMS-1;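 note: growth inhibition of human SK-LMS-1 cells, read out with a cell viability assay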
Description: SANGER: Inhibition of human SK-LMS-1 cell growth in a cell viability assay.

SK-MEL-2 = assay type: functional, cell-based, Homo sapiens; conditions: Homo sapiens, SK-MEL-2;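 note: growth inhibition of human SK-MEL-2 cells measured with a cell viability assay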
Description: SANGER: Inhibition of human SK-MEL-2 cell growth in a cell viability assay.

SK-N-DZ = assay type: functional, cell-based, Homo sapiens; conditions: Homo sapiens, SK-N-DZ; read-out: IC50;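 note: growth inhibition of the cancer cell line, read out through a viability assay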
Description: SANGER: Inhibition of human SK-N-DZ cell growth in a cell viability assay.

SW 954 = assay type: functional, cell-based, Homo sapiens; conditions: Homo sapiens, SW 954;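 note: growth inhibition of SW954 human cancer cells, read out as cell viability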
Description: SANGER: Inhibition of human SW954 cell growth in a cell viability assay.

A253 cell line = assay type: functional, cell-based, Homo sapiens; conditions: Homo sapiens, A253;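 note: growth inhibition of A253 cells, read out with a cell viability assay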
Description: SANGER: Inhibition of human A253 cell growth in a cell viability assay.

ACN = assay type: functional, cell-based, Homo sapiens; conditions: Homo sapiens, ACN;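 note: growth inhibition of the human ACN cell line, read out via cell viability testing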
Description: SANGER: Inhibition of human ACN cell growth in a cell viability assay.

ALL-PO = assay type: functional, cell-based, Homo sapiens; conditions: Homo sapiens, ALL-PO;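 note: growth inhibition of ALL-PO cells, read out by a cell viability assay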
Description: SANGER: Inhibition of human ALL-PO cell growth in a cell viability assay.

BE-13 = assay type: functional, cell-based, Homo sapiens; conditions: Homo sapiens, BE-13;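 note: growth inhibition of human BE-13 cells, measured with a cell viability assay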
Description: SANGER: Inhibition of human BE-13 cell growth in a cell viability assay.

BT-474 = assay type: functional, cell-based, Homo sapiens; conditions: Homo sapiens, BT-474
Description: SANGER: Inhibition of human BT-474 cell growth in a cell viability assay.

TE-12 = assay type: functional, cell-based, Homo sapiens; conditions: Homo sapiens, TE-12;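 note: growth inhibition of TE-12 cells, read out by a cell viability assay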
Description: SANGER: Inhibition of human TE-12 cell growth in a cell viability assay.

TE-8 = assay type: functional, cell-based, Homo sapiens; conditions: Homo sapiens, TE-8;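 note: growth inhibition of TE-8 cells, measured with a cell viability readout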
Description: SANGER: Inhibition of human TE-8 cell growth in a cell viability assay.

U-266 = assay type: functional, cell-based, Homo sapiens; conditions: Homo sapiens, U-266
Description: SANGER: Inhibition of human U-266 cell growth in a cell viability assay.

VA-ES-BJ = assay type: functional, cell-based, Homo sapiens; conditions: Homo sapiens, VA-ES-BJ;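 note: growth inhibition of the VA-ES-BJ cell line, read out by a cell viability assay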
Description: SANGER: Inhibition of human VA-ES-BJ cell growth in a cell viability assay.

CGTH-W-1 = assay type: functional, cell-based, Homo sapiens; conditions: Homo sapiens, CGTH-W-1;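 note: growth inhibition of human CGTH-W-1 cells measured by cell viability assay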
Description: SANGER: Inhibition of human CGTH-W-1 cell growth in a cell viability assay.

Compound OC[C@H](Cc1ccccc1)Nc1nc(Oc2ccc3c(c2)CCC3)nc2c1ncn2Cc1ccc(-c2ccccc2)cc1 has an IC50 (COR-L88) greater than 10.2 µM, an IC50 (Calu-6) greater than 10.2 µM and an IC50 (DJM-1) greater than 10.2 µM. For the same compound, the IC50 (ES1) was 1380 nM, the IC50 (EW-13) was 413 nM and the IC50 (EW-3) was greater than 10.2 µM. It also gave an IC50 (GCIY) greater than 10.2 µM, an IC50 (GI-ME-N) greater than 10.2 µM and an IC50 (HCC1187) greater than 10.2 µM. The IC50 (HCE-4) was 7.47 µM, the IC50 (HEL) was 3.28 µM and the IC50 (IA-LM) was 5.91 µM. It also gave an IC50 (IST-SL1) greater than 10.2 µM, an IC50 (K562) greater than 10.2 µM and an IC50 (KALS-1) greater than 10.2 µM. The IC50 (LOX IMVI) was greater than 10.2 µM, the IC50 (MHH-NB-11) was greater than 10.2 µM and the IC50 (MN-60) was greater than 10.2 µM. The IC50 (MOLT-4) was greater than 10.2 µM, the IC50 (MPP-89) was greater than 10.2 µM and the IC50 (MV4-11) was 5.51 µM. It also gave an IC50 (NB10) greater than 10.2 µM, an IC50 (NB5) greater than 10.2 µM and an IC50 (NCI-H1092) greater than 10.2 µM. The IC50 (NCI-H1355) was greater than 10.2 µM, the IC50 (NCI-H1395) was greater than 10.2 µM and the IC50 (NCI-H1648) was greater than 10.2 µM. It also gave an IC50 (NCI-H1770) of 8.9 µM, an IC50 (NCI-H2126) greater than 10.2 µM and an IC50 (NCI-H226) greater than 10.2 µM. For the same compound, the IC50 (NCI-H446) was greater than 10.2 µM, the IC50 (NCI-H720) was greater than 10.2 µM and the IC50 (OMC-1) was greater than 10.2 µM. For the same compound, the IC50 (P30-OHK) was 3.56 µM, the IC50 (RXF 393) was greater than 10.2 µM and the IC50 (SK-LMS-1) was 2940 nM. For the same compound, the IC50 (SK-MEL-2) was greater than 10.2 µM, the IC50 (SK-N-DZ) was 2230 nM and the IC50 (SW 954) was greater than 10.2 µM. For the same compound, the IC50 (A253 cell line) was greater than 10.2 µM, the IC50 (ACN) was 6.01 µM and the IC50 (ALL-PO) was greater than 10.2 µM. The IC50 (BE-13) was greater than 10.2 µM, the IC50 (BT-474) was greater than 10.2 µM and the IC50 (TE-12) was greater than 10.2 µM. It also gave an IC50 (TE-8) of 3.17 µM, an IC50 (U-266) greater than 10.2 µM and an IC50 (VA-ES-BJ) of 2570 nM. For the same compound, the IC50 (CGTH-W-1) was greater than 10.2 µM.

With O=S(=O)(O)c1ccc2cc(/N=N/c3cc(S(=O)(=O)O)c4cccnc4c3O)ccc2c1 the IC50 (COR-L88) was greater than 16 µM, the IC50 (Calu-6) was greater than 16 µM and the IC50 (DJM-1) was greater than 16 µM. The IC50 (ES1) was greater than 16000 nM, the IC50 (EW-13) was 5170 nM and the IC50 (EW-3) was greater than 16 µM. It also gave an IC50 (GCIY) greater than 16 µM, an IC50 (GI-ME-N) greater than 16 µM and an IC50 (HCC1187) greater than 16 µM. It also gave an IC50 (HCE-4) greater than 16 µM, an IC50 (HEL) greater than 16 µM and an IC50 (IA-LM) greater than 16 µM. For the same compound, the IC50 (IST-SL1) was greater than 16 µM, the IC50 (K562) was greater than 16 µM and the IC50 (KALS-1) was greater than 16 µM. It also gave an IC50 (LOX IMVI) greater than 16 µM, an IC50 (MHH-NB-11) greater than 16 µM and an IC50 (MN-60) greater than 16 µM. For the same compound, the IC50 (MOLT-4) was greater than 16 µM, the IC50 (MPP-89) was greater than 16 µM and the IC50 (MV4-11) was greater than 16 µM. The IC50 (NB10) was greater than 16 µM, the IC50 (NB5) was greater than 16 µM and the IC50 (NCI-H1092) was greater than 16 µM. For the same compound, the IC50 (NCI-H1355) was greater than 16 µM, the IC50 (NCI-H1395) was greater than 16 µM and the IC50 (NCI-H1648) was greater than 16 µM. It also gave an IC50 (NCI-H1770) greater than 16 µM, an IC50 (NCI-H2126) greater than 16 µM and an IC50 (NCI-H226) greater than 16 µM. The IC50 (NCI-H446) was greater than 16 µM, the IC50 (NCI-H720) was greater than 16 µM and the IC50 (OMC-1) was greater than 16 µM. It also gave an IC50 (P30-OHK) greater than 16 µM, an IC50 (RXF 393) greater than 16 µM and an IC50 (SK-LMS-1) of 9450 nM. For the same compound, the IC50 (SK-MEL-2) was greater than 16 µM, the IC50 (SK-N-DZ) was greater than 16000 nM and the IC50 (SW 954) was greater than 16 µM. For the same compound, the IC50 (A253 cell line) was greater than 16 µM, the IC50 (ACN) was greater than 16 µM and the IC50 (ALL-PO) was greater than 16 µM. The IC50 (BE-13) was greater than 16 µM, the IC50 (BT-474) was greater than 16 µM and the IC50 (TE-12) was greater than 16 µM. For the same compound, the IC50 (TE-8) was greater than 16 µM, the IC50 (U-266) was greater than 16 µM and the IC50 (VA-ES-BJ) was greater than 16000 nM. It also gave an IC50 (CGTH-W-1) greater than 16 µM.

NC(=O)c1cccc(-c2cc(Nc3ccc(OC(F)(F)F)cc3)ncn2)c1 was tested, and the IC50 (COR-L88) was greater than 1.28 µM, the IC50 (Calu-6) was greater than 1.28 µM and the IC50 (DJM-1) was greater than 1.28 µM. It also gave an IC50 (ES1) greater than 1280 nM, an IC50 (EW-13) greater than 1280 nM and an IC50 (EW-3) greater than 1.28 µM. It also gave an IC50 (GCIY) greater than 1.28 µM, an IC50 (GI-ME-N) greater than 1.28 µM and an IC50 (HCC1187) greater than 1.28 µM. The IC50 (HCE-4) was greater than 1.28 µM, the IC50 (HEL) was greater than 1.28 µM and the IC50 (IA-LM) was greater than 1.28 µM. The IC50 (IST-SL1) was greater than 1.28 µM, the IC50 (K562) was 0.361 µM and the IC50 (KALS-1) was greater than 1.28 µM. The IC50 (LOX IMVI) was greater than 1.28 µM, the IC50 (MHH-NB-11) was greater than 1.28 µM and the IC50 (MN-60) was greater than 1.28 µM. It also gave an IC50 (MOLT-4) greater than 1.28 µM, an IC50 (MPP-89) greater than 1.28 µM and an IC50 (MV4-11) greater than 1.28 µM. It also gave an IC50 (NB10) greater than 1.28 µM, an IC50 (NB5) greater than 1.28 µM and an IC50 (NCI-H1092) greater than 1.28 µM. It also gave an IC50 (NCI-H1355) greater than 1.28 µM, an IC50 (NCI-H1395) greater than 1.28 µM and an IC50 (NCI-H1648) greater than 1.28 µM. The IC50 (NCI-H1770) was greater than 1.28 µM, the IC50 (NCI-H2126) was greater than 1.28 µM and the IC50 (NCI-H226) was greater than 1.28 µM. For the same compound, the IC50 (NCI-H446) was greater than 1.28 µM, the IC50 (NCI-H720) was greater than 1.28 µM and the IC50 (OMC-1) was greater than 1.28 µM. It also gave an IC50 (P30-OHK) greater than 1.28 µM, an IC50 (RXF 393) greater than 1.28 µM and an IC50 (SK-LMS-1) greater than 1280 nM. It also gave an IC50 (SK-MEL-2) greater than 1.28 µM, an IC50 (SK-N-DZ) greater than 1280 nM and an IC50 (SW 954) greater than 1.28 µM. The IC50 (A253 cell line) was greater than 1.28 µM, the IC50 (ACN) was greater than 1.28 µM and the IC50 (ALL-PO) was greater than 1.28 µM. For the same compound, the IC50 (BE-13) was greater than 1.28 µM, the IC50 (BT-474) was greater than 1.28 µM and the IC50 (TE-12) was greater than 1.28 µM. It also gave an IC50 (TE-8) greater than 1.28 µM, an IC50 (U-266) greater than 1.28 µM and an IC50 (VA-ES-BJ) greater than 1280 nM. It also gave an IC50 (CGTH-W-1) greater than 1.28 µM.
